From patent US20220330549A1, “USE OF N-BENZYLBENZAMIDE-BASED COMPOUND AS HERBICIDE” (Northwest A&F University, priority 2020, published 2022)

Assays:
Type in all cases: in vivo
Humulus scandens [1] = test: Herbicidal activity test for indoor pre-emergence soil treatment; conditions: 150 g a.i./ha, visual inspection 21 days after treatment
Summary of the method: (§1)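 Compounds were formulated as 10% emulsifiable concentrates and sprayed onto the soil 24 h after sowing, at 150 g(a.i.)/ha. Soil was sandy loam (≤2% organic matter), with seeds under 0.5–2.0 cm cover, per NY/T 1155.3-2006. Visual 1–9 ratings relative to blank control were made after 21 days.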

Piemarker [2] = test: as above; design: key: level 1-9; higher = more weed remaining vs blank control; conditions: 150 g a.i./ha, visual inspection 21 days after treatment
Summary of the method: as §1

Barnyard grass [3] = test: as above; design: key: level 1-9; higher = more weed remaining vs blank control; conditions: 150 g a.i./ha, visual inspection 21 days after treatment
Summary of the method: as §1

green bristlegrass [4] = test: as above; design: key: level 1-9; higher = more weed remaining vs blank control; conditions: 150 g a.i./ha, visual inspection 21 days after treatment
Summary of the method: as §1

Solanum nigrum = test: Field test for weed control in a corn field; conditions: 150 g a.i./ha, 30 days after treatment
Summary of the method: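 Post-emergence weed control was tested in a corn field following GB/T 17980.42-2000. Compounds were made into 10% emulsifiable concentrates, diluted in water and sprayed at 150 g(a.i.)/ha when corn had 2 to 5 leaves after sowing, in 20 m^2 plots with 4 replicates. Effects on Solanum nigrum were graded on a 1-9 scale relative to the blank control area.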

nutgrass flatsedge = test: Field test for weed control in a corn field; conditions: 150 g a.i./ha, after treatment
Summary of the method: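 A corn field efficacy trial following GB/T 17980.42-2000 assessed post-emergence control of nutgrass flatsedge. Test compounds were formulated as 10% emulsifiable concentrates, diluted in water, and sprayed at 150 g(a.i.)/ha when the corn had 2 to 5 leaves. Each treatment had 4 replicates on 20 m^2 plots. Herbicidal activity was graded on a 1-9 scale by damage symptoms and severity.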

Convolvulus arvensis = test: Field test for weed control in a corn field; conditions: 150 g a.i./ha, after treatment
Summary of the method: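 Field trial of weed control against Convolvulus arvensis in corn, run following GB/T 17980.42-2000. Test agents were formulated as 10% emulsifiable concentrates and sprayed in water at 150 g(a.i.)/ha when corn plants had 2 to 5 leaves. Each treatment was replicated 4 times on 20 m^2 plots, and 25% mesotrione oil dispersion served as the control agent.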

Chenopodium album = test: Field test for weed control in a corn field; conditions: 150 g a.i./ha, after treatment
Summary of the method: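 A corn-field efficacy trial following GB/T 17980.42-2000 tested post-emergence control of Chenopodium album. Test compounds formulated as 10% emulsifiable concentrates were diluted in water and sprayed at 150 g(a.i.)/ha when the corn had 2 leaves to 5 leaves, on 20 m^2 plots with 4 replicates. Herbicidal activity was rated on a 1-9 scale by damage symptoms and severity.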

Barnyard grass [5] = test: Field test for weed control in a corn field; conditions: 150 g a.i./ha, 30 days after treatment
Summary of the method: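 Corn-field efficacy trial following GB/T 17980.42-2000. Test compounds were formulated as 10% emulsifiable concentrates, diluted in water and sprayed post-emergence at 150 g(a.i.)/ha when corn had 2 to 5 leaves. Each treatment was replicated 4 times on 20 m^2 plots. Barnyard grass control was rated on a 1-9 damage scale.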

goosegrass = test: Field test for weed control in a corn field; conditions: 150 g a.i./ha, after treatment
Summary of the method: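 Weed control efficacy against goosegrass was tested in a corn field following GB/T 17980.42-2000. Compounds formulated as 10% emulsifiable concentrates were diluted in water and sprayed post-emergence at 150 g(a.i.)/ha when corn had 2 to 5 leaves, with 4 replicates of 20 m^2 plots. Herbicidal activity was rated on a 1-9 scale by damage symptoms and severity.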

Portulaca oleracea = test: Field test for weed control in a corn field; conditions: 150 g a.i./ha, after treatment
Summary of the method: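 Field efficacy trial in corn following GB/T 17980.42-2000. Test compounds were prepared as 10% emulsifiable concentrates, diluted in water, and sprayed at 150 g(a.i.)/ha when corn had 2 to 5 leaves after sowing. Plots were 20 m^2 with 4 replicates per treatment. Herbicidal activity was scored on a 1-9 scale from weed damage symptoms and severity.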

Amaranthus retroflexus [6] = test: Field test for weed control in a corn field; conditions: 150 g a.i./ha, 30 days after treatment
Summary of the method: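 Field efficacy trial in a corn field following GB/T 17980.42-2000. Test compounds were formulated as 10% emulsifiable concentrates, diluted in water and sprayed post-emergence when corn had 2 to 5 leaves. Each treatment covered 20 m^2 with 4 replicates. A 25% mesotrione oil dispersion served as control. Damage to Amaranthus retroflexus was rated on a 1-9 scale against untreated blank plots.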

green bristlegrass [7] = test: Field test for weed control in a corn field; conditions: 150 g a.i./ha, after treatment
Summary of the method: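 Post-emergence weed control was tested in a corn field following GB/T 17980.42-2000. When the corn had 2 leaves to 5 leaves after sowing, 10% emulsifiable concentrates diluted in water were sprayed at 150 g(a.i.)/ha on 20 m^2 plots, four replicates per treatment. Effects on green bristlegrass were scored on a 1-9 damage scale relative to the blank control area.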

Digitaria sanguinalis [8] = test: Field test for weed control in a corn field; conditions: 150 g a.i./ha, after treatment
Summary of the method: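 Field trial in a corn field following GB/T 17980.42-2000. Test compounds were formulated as 10% emulsifiable concentrates, diluted in water and sprayed post-emergence at 150 g(a.i.)/ha when corn had 2 to 5 leaves, with 4 replicates on 20 m^2 plots. Control of Digitaria sanguinalis was scored on a 1-9 scale based on weed damage relative to the untreated blank area.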

Acalypha australis = test: Field test for weed control in a corn field; conditions: 150 g a.i./ha, after treatment
Summary of the method: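 Post-emergence field trial in a corn field following GB/T 17980.42-2000. Test compounds were formulated as 10% emulsifiable concentrates, diluted in water, and sprayed at 150 g(a.i.)/ha when corn had 2 to 5 leaves, with 4 replicates on 20 m^2 plots. Mesotrione 25% oil dispersion served as the control agent. Weed control was scored on a 1-9 scale.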

Piemarker [9] = test: Herbicidal activity test for indoor post-emergence spraying on stems and leaves; design: key: grade level by weed remaining vs blank control, e.g. 5 = 10.1-15%; conditions: 150 g a.i./ha, visual inspection 21 days after treatment
Summary of the method: (§2)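 Visual inspection at 21 days after treatment gave a level rating, each level defined as a percentage band of the weed remaining in the blank control area. Plants were sprayed on stems and leaves after emergence, following NY/T 1155.4-2006.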

Barnyard grass [10] = test: as above; design: key: grade level by weed remaining vs blank control, e.g. 5 = 10.1-15%; conditions: 150 g a.i./ha, visual inspection 21 days after treatment
Summary of the method: as §2

Amaranthus retroflexus [11] = test: as above; design: key: grade level by weed remaining vs blank control, e.g. 5 = 10.1-15%; conditions: 150 g a.i./ha, visual inspection 21 days after treatment
Summary of the method: as §2

green bristlegrass [12] = test: as above; design: key: grade level by weed remaining vs blank control, e.g. 5 = 10.1-15%; conditions: 150 g a.i./ha, visual inspection 21 days after treatment
Summary of the method: as §2

Digitaria sanguinalis [13] = test: as above; design: key: grade level by weed remaining vs blank control, e.g. 5 = 10.1-15%; conditions: 150 g a.i./ha, visual inspection 21 days after treatment
Summary of the method: as §2

Humulus scandens [14] = test: as above; design: key: grade level by weed remaining vs blank control, e.g. 5 = 10.1-15%; conditions: 150 g a.i./ha, visual inspection 21 days after treatment
Summary of the method: as §2

Amaranthus retroflexus [15] = test: Herbicidal activity test for indoor pre-emergence soil treatment; design: key: 1-9 levels; higher = more weed remaining vs blank control; conditions: 150 g a.i./ha, visual inspection 21 days after treatment
Summary of the method: as §1

Digitaria sanguinalis [16] = test: as above; design: key: 1-9 levels; higher = more weed remaining vs blank control; conditions: 150 g a.i./ha, visual inspection 21 days after treatment
Summary of the method: as §1

Broadleaf weed = test: Post-emergence herbicidal activity test in a paddy field; design: key: level scale; higher level = more weed left vs blank control; conditions: 150 g a.i./ha (penoxsulam control 250 g(a.i.)/h)
Summary of the method: (§3)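 Efficacy was visually estimated 15 and 30 days after spraying, grading weed coverage relative to an untreated neighbouring plot (level 2 = 0 to 2.5%, level 9 = 67.6 to 100%). Treatments were 150 g(a.i.)/ha from 10% emulsifiable concentrates applied at the 4-5 leaf rice stage, four repeats of 50 m^2 each.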

Gramineae = test: as above; design: key: level scale; higher level = more weed left vs blank control; conditions: 150 g a.i./ha (penoxsulam control 250 g(a.i.)/h)
Summary of the method: as §3

Cyperaceae = test: as above; design: key: level scale; higher level = more weed left vs blank control; conditions: 150 g a.i./ha (penoxsulam control 250 g(a.i.)/h)
Summary of the method: as §3

| SMILES | Herbicidal Activity Humulus scandens (Humulus scandens [1]) | Herbicidal Activity Piemarker (Piemarker [2]) | Herbicidal Activity Barnyard grass (Barnyard grass [3]) | Herbicidal Activity Green bristlegrass (green bristlegrass [4]) | Post-emergence weed control effect, Solanum nigrum (Solanum nigrum) | Post-emergence weed control effect, Nutgrass flatsedge (nutgrass flatsedge) | Post-emergence weed control effect, Convolvulus arvensis (Convolvulus arvensis) | Post-emergence weed control effect, Chenopodium album (Chenopodium album) | Post-emergence weed control effect, Barnyard grass (Barnyard grass [5]) | Post-emergence weed control effect, Goose grass (goosegrass) | Post-emergence weed control effect, Portulaca oleracea (Portulaca oleracea) | Post-emergence weed control effect, Amaranthus retroflexus (Amaranthus retroflexus [6]) | Post-emergence weed control effect, Green bristlegrass (green bristlegrass [7]) | Post-emergence weed control effect, Digitaria sanguinalis (Digitaria sanguinalis [8]) | Post-emergence weed control effect, Acalypha australis (Acalypha australis) | Herbicidal Activity Piemarker (Piemarker [9]) | Herbicidal Activity Barnyard grass (Barnyard grass [10]) | Herbicidal Activity Amaranthus retroflexus (Amaranthus retroflexus [11]) | Herbicidal Activity Green bristlegrass (green bristlegrass [12]) | Herbicidal Activity Digitaria sanguinalis (Digitaria sanguinalis [13]) | further results |
| --- | --- | --- | --- | --- | --- | --- | --- | --- | --- | --- | --- | --- | --- | --- | --- | --- | --- | --- | --- | --- | --- |
| COc1ccccc1C(=O)NCc1cc(F)cc(F)c1 [Compound A03, N-(3,5 difluorobenzyl)-2-methoxybenzamide] | 2 (equivalent to 0 to 2.5% of the weed in the blank control area) | 1 | 1 | 1 | 1 | 2 (equivalent to 0 to 2.5% of the weed in the blank control area) | 1 | 1 | 1 | 2 (equivalent to 0 to 2.5% of the weed in the blank control area) | 1 | 1 | 2 (equivalent to 0 to 2.5% of the weed in the blank control area) | 1 | 2 (equivalent to 0 to 2.5% of the weed in the blank control area) | 1 | 1 | 1 | 1 | 2 (equivalent to 0 to 2.5% of the weed in the blank control area) | Herbicidal Activity Humulus scandens (Humulus scandens [14]): 1; Herbicidal Activity Amaranthus retroflexus (Amaranthus retroflexus [15]): 1; Herbicidal Activity Digitaria sanguinalis (Digitaria sanguinalis [16]): 2 (equivalent to 0 to 2.5% of the weed in the blank control area); Herbicidal activity 15 days after treatment Broadleaf weed (Broadleaf weed): 1; Herbicidal activity 30 days after treatment Broadleaf weed (Broadleaf weed): 2 (equivalent to 0 to 2.5% of the weed in the blank control area); Herbicidal activity 15 days after treatment Gramineae (Gramineae): 2 (equivalent to 0 to 2.5% of the weed in the blank control area); Herbicidal activity 30 days after treatment Gramineae (Gramineae): 1; Herbicidal activity 15 days after treatment Cyperaceae (Cyperaceae): 2 (equivalent to 0 to 2.5% of the weed in the blank control area); Herbicidal activity 30 days after treatment Cyperaceae (Cyperaceae): 1 |
| Cc1cccc(C(=O)NCc2cccc(F)c2)n1 [Compound B22] | 2 (equivalent to 0 to 2.5% of the weed in the blank control area) | 1 | 1 | 1 | 2 (equivalent to 0 to 2.5% of the weed in the blank control area) | 2 (equivalent to 0 to 2.5% of the weed in the blank control area) | 1 | 1 | 1 | 2 (equivalent to 0 to 2.5% of the weed in the blank control area) | 1 | 1 | 1 | 2 (equivalent to 0 to 2.5% of the weed in the blank control area) | 1 | 1 | 1 | 1 | 1 | 1 | Herbicidal Activity Humulus scandens (Humulus scandens [14]): 1; Herbicidal Activity Amaranthus retroflexus (Amaranthus retroflexus [15]): 1; Herbicidal Activity Digitaria sanguinalis (Digitaria sanguinalis [16]): 1; Herbicidal activity 15 days after treatment Broadleaf weed (Broadleaf weed): 1; Herbicidal activity 30 days after treatment Broadleaf weed (Broadleaf weed): 1; Herbicidal activity 15 days after treatment Gramineae (Gramineae): 1; Herbicidal activity 30 days after treatment Gramineae (Gramineae): 1; Herbicidal activity 15 days after treatment Cyperaceae (Cyperaceae): 1; Herbicidal activity 30 days after treatment Cyperaceae (Cyperaceae): 1 |
